Source: patent EP4768479A1 (Hubei Bio-Pharmaceutical Industrial Technological Institute …, priority 2023, dated 2025)

Columns and labels:
[1] = Bidirectional permeability study in Caco-2 cells; type: in vitro ADME; conditions: human, pH 7.4, Caco-2, 2.00 µM, A to B
Protocol: Caco-2 cells were inoculated onto […] (PET) in 96-well inserted plates at a rate of 1×10^5 cells/cm^2, and the medium was changed every 4 to 5 days until day 21 to 28, to form a fused cell monolayer. The transport buffer in the assay was HBSS and 10.0 mM HEPES, with a pH of 7.40±0.05. The test compounds were subjected to a bidirectional test at 2.00 µM in the presence and absence of GF120918 (10.0 µM). Digoxin was subjected to a bidirectional test at 10.0 µM in the presence and absence of GF120918 (10.0 µM), while Nadolol and Metoprolol were subjected to a test from direction A to direction B at 2.00 µM in the absence of GF120918 (10.0 µM). The above tests were performed in duplicate. The final concentration of DMSO was adjusted to be lower than 1%. The plate was incubated in a CO2 incubator at 37°C±1°C for 2 hours, and 5% CO2 was added under saturated humidity without shaking. All the samples, after being mixed with acetonitrile containing internal standard, were centrifuged at 3,200 g for 10 minutes. For Nadolol and Metoprolol, 200 µL of supernatant was diluted with 600 µL of distilled water for LC-MS/MS analysis. For Digoxin and test compounds, 200 µL of supernatant was diluted with 200 µL of distilled water for LC-MS/MS analysis. The concentrations of the test compounds and control compounds in the starting solution, the donor solution, and the acceptor solution were quantified by LC-MS/MS based on a peak area ratio of the analyte to the internal standard.
After the transport assay, the integrity of the Caco-2 cell monolayer was determined using Lucifer Yellow Exclusion Assay. [Table 4] Bidirectional Permeability of Compounds in Caco-2 Cells

[2] = Liver microsomal stability assay; type: in vitro ADME; conditions: human liver microsomes, NADPH, 37°C; read-out: T1/2 (min) Human
Protocol: The human liver microsome stability assay was performed by co-incubating the compound with human liver microsomes in vitro. The test compounds were first prepared as 10 mM stock solutions in DMSO solvent, and then diluted to 0.5 mM with acetonitrile. Human liver microsomes (Corning) were diluted with PBS to prepare a microsome/buffer solution, and this solution was used to dilute 0.5 mM of the compound to prepare a working solution. In the working solution, a concentration of the compound was 1.5 µM and a concentration of the human liver microsome was 0.75 mg/mL. A deep-well plate was taken, 30 µL of working solution was added to each well of the plate, and then 15 µL of pre-heated NADPH solution (6 mM) was added to start the reaction. The mixture was incubated at 37°C. 135 µL of acetonitrile was added to the corresponding wells to stop the reaction at 0 minute, 5 minutes, 15 minutes, 30 minutes, and 45 minutes of incubation. Subsequent to the stop of the reaction by means of acetonitrile at the last time point of 45 minutes, the plate was vortexed for 10 minutes (600 rpm/min) and then centrifuged for 15 minutes. After the centrifugation, the supernatant was taken, and purified water was added in a 1:1 ratio for LC-MS/MS detection. The ratio of a peak area of the compound to a peak area of the internal standard at individual time points was obtained. The peak area ratios of the compound at 5 minutes, 15 minutes, 30 minutes, and 45 minutes were compared with the peak area ratio at 0 minute, and the remaining percentage of the compound at each time point was calculated. T1/2 was calculated using Graphpad8 software. [Table 3] Liver Microsomal Stability of Compounds

[3] = Pharmacokinetic study following single oral gavage administration to cynomolgus monkeys; type: in vivo; conditions: cynomolgus monkey, plasma, 5 mg/kg; Monkey PK PO (5 mpk)
Protocol: The compounds were dissolved in a vehicle consisting of 5% DMSO+10% Solutol+85% Saline to a concentration of 1 mg/mL, and administered at a dose of 5 mpk. The animals were weighed before the administration, and the dosing volume was calculated based on the body weight. The compounds were administered to the animals via oral gavage. Blood samples were collected via a femoral vein or other suitable methods at time points of 0.083 hours, 0.25 hours, 0.5 hours, 1 hour, 2 hours, 4 hours, 6 hours, 8 hours, and 24 hours. Approximately 1 mL of each sample was collected at each time point, anticoagulated with sodium heparin, and placed on ice immediately after the collection. After the blood samples were collected, they were placed on ice and centrifuged within 1 hour to separate plasma (centrifugation conditions: 2,200g, 10 minutes, and 2°C to 8°C). The plasma samples were stored in a -80°C refrigerator until analysis.
The bioanalytical method and sample analysis were performed by the Analytical Laboratory of Medicilon Inc. (Shanghai, China). Intra-day accuracy of quality control samples was evaluated concurrently with the sample analysis, requiring that accuracy of more than 66.7% of the quality control samples fell within the range of 80% to 120%. [Table 5] Pharmacokinetics of Compounds in Monkeys

Question: With `COC(=O)NS(=O)(=O)c1sc(CC(C)C)c(C)c1-c1ccc(Cn2ccnc2C(F)(F)F)cc1` [Compound I-9, Methyl ((5-isobutyl-4-methyl-3-(4-((2-(trifluoromethyl)-1H-imidazol-1-yl)methyl)phenyl)thiophen-2-yl)sulfonyl)carbamate] as the compound, how does the Papp A→B at 2 h, 2 µM [1] read?
Answer: 2.29 ×10⁻⁶ cm/s

Question: What about the half-life at 1 µM [2] of the same compound?
Answer: 50.2 min

Question: And the AUC(0-t) [3]?
Answer: 7790 ng·h/mL

Question: What about the Cmax [3] of the same compound?
Answer: 5310 ng/mL

Question: For `Cc1c(CC(C)C)sc(S(=O)(=O)NC(=O)OCC(C)(C)O)c1-c1ccc(Cn2ccnc2C(F)(F)F)cc1` [Compound I-10, 2-hydroxy-2-methylpropyl ((5-isobutyl-4-methyl-3-(4-((2-(trifluoromethyl)-1H-imidazol-1-yl)methyl)phenyl)thiophen-2-yl)sulfonyl)carbamate], which Papp A→B at 2 h, 2 µM [1] is on record?
Answer: 2.63 ×10⁻⁶ cm/s

Question: What about the half-life at 1 µM [2] of the same compound?
Answer: 83.2 min

Question: What about the AUC(0-t) [3] of the same compound?
Answer: 5570 ng·h/mL

Question: What about the Cmax [3] of the same compound?
Answer: 3560 ng/mL

Question: What does the source list for `Cc1c(CC(C)C)sc(S(=O)(=O)NC(=O)OCCO)c1-c1ccc(Cn2ccnc2C(F)(F)F)cc1` [Compound I-13, 2-hydroxyethyl ((5-isobutyl-4-methyl-3-(4-((2-(trifluoromethyl)-1H-imidazol-1-yl)methyl)phenyl)thiophen-2-yl)sulfonyl)carbamate]?
Answer: Papp A→B at 2 h, 2 µM [1]: 1.98 ×10⁻⁶ cm/s; half-life at 1 µM [2]: 46.4 min

Question: For `COC(=O)NS(=O)(=O)c1sc(CC(C)C)c(C)c1-c1ccc(Cn2ccnc2Cl)c(F)c1` [Compound I-14, Methyl ((3-(4-((2-chloro-1H-imidazol-1-yl)methyl)-3-fluorophenyl)-5-isobutyl-4-methylthiophen-2-yl)sulfonyl)carbamate], which Papp A→B at 2 h, 2 µM [1] is on record?
Answer: 3.73 ×10⁻⁶ cm/s

Question: And the half-life at 1 µM [2]?
Answer: 45 min

Question: What about the AUC(0-t) [3] of the same compound?
Answer: 7350 ng·h/mL

Question: What about the Cmax [3] of the same compound?
Answer: 5040 ng/mL

Question: With `COC(=O)NS(=O)(=O)c1sc(CC(C)C)c(C)c1-c1ccc(Cn2ccnc2C(C)(C)O)cc1` [Compound I-19, Methyl ((3-(4-((2-(2-hydroxypropan-2-yl)-1H-imidazol-1-yl)methyl)phenyl)-5-isobutyl-4-methylthiophen-2-yl)sulfonyl)carbamate] as the compound, how does the Papp A→B at 2 h, 2 µM [1] read?
Answer: 3.24 ×10⁻⁶ cm/s

Question: What about the half-life at 1 µM [2] of the same compound?
Answer: 71.2 min

Question: And the AUC(0-t) [3]?
Answer: 6820 ng·h/mL

Question: What about the Cmax [3] of the same compound?
Answer: 4030 ng/mL

Question: Which Papp A→B at 2 h, 2 µM [1] does the source give for `Cc1c(CC(C)C)sc(S(=O)(=O)Nc2ncccn2)c1-c1ccc(Cn2ccnc2Cl)cc1` [Compound I-23, 3-(4-((2-chloro-1H-imidazol-1-yl)methyl)phenyl)-5-isobutyl-4-methyl-N-(pyrimidin-2-yl)thiophene-2-sulfonamide] here?
Answer: 5.22 ×10⁻⁶ cm/s

Question: What about the half-life at 1 µM [2] of the same compound?
Answer: 39.3 min

Question: What does the source list for `CCCCOC(=O)NS(=O)(=O)c1sc(CC(C)C)cc1-c1ccc(Cn2ccnc2)cc1` [Control Compound I, reference compound]?
Answer: Papp A→B at 2 h, 2 µM [1]: 0.381 ×10⁻⁶ cm/s; half-life at 1 µM [2]: 9.13 min; AUC(0-t) [3]: 4920 ng·h/mL; Cmax [3]: 1320 ng/mL
